Our source for the inhibition and remaining activity values is patent publication US9492471B2, “Methods of treating a disease or disorder associated with Bruton'S Tyrosine Kinase” (Celgene Avilomics Research, Inc., priority 2013, dated 2016).

Common to all, as to experiment: HotSpot kinase profiling
Common to all, as to format: biochemical

For one assay, the target named is T1, TAOK2/TAO1 (Homo sapiens, UniProt Q9UL54).
T1 construct: purchased Reaction Biology Corp
T1 sequence (Q9UL54 1-1235): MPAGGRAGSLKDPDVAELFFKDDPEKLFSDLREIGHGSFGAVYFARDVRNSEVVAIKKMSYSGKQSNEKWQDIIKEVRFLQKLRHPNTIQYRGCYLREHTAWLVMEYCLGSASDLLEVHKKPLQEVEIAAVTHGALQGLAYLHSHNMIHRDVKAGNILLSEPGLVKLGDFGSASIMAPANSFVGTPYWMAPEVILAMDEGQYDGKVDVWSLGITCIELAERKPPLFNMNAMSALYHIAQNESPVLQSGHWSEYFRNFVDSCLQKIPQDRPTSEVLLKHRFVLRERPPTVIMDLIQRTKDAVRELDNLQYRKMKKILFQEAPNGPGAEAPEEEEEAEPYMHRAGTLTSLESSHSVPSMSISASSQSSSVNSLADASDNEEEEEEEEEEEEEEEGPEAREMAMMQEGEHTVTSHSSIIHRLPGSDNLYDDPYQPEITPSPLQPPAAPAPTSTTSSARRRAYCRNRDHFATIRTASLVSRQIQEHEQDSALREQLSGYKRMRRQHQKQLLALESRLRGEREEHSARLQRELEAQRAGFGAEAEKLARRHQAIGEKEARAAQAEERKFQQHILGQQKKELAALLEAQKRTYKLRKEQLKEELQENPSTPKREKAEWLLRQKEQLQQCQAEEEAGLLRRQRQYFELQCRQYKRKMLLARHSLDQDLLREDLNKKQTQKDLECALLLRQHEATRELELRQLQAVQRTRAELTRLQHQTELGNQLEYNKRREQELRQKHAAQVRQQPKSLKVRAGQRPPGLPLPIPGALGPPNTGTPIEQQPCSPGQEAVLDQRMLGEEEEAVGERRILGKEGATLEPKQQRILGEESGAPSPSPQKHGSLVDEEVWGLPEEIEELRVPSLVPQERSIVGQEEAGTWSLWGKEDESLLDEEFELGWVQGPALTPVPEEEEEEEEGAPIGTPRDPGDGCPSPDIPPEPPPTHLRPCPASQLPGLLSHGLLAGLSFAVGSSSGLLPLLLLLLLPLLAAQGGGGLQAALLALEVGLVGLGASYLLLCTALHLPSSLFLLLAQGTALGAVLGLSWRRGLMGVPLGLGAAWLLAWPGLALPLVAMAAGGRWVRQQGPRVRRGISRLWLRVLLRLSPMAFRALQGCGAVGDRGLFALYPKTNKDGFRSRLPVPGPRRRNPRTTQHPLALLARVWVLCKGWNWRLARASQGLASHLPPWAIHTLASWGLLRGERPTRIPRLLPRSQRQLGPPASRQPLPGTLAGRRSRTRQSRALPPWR
The method, boiled down:
(§1)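 P81 filtration radiometric readout; 2 h incubation at room temperature; 0.1% phosphoric acid wash; DMSO negative control; % inhibition, mean of replicate runs.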

The next assay concerns the target T2, STK22D/TSSK1 (Homo sapiens, UniProt Q9BXA7).
T2 construct: purchased Reaction Biology Corp
T2 sequence (Q9BXA7 1-367): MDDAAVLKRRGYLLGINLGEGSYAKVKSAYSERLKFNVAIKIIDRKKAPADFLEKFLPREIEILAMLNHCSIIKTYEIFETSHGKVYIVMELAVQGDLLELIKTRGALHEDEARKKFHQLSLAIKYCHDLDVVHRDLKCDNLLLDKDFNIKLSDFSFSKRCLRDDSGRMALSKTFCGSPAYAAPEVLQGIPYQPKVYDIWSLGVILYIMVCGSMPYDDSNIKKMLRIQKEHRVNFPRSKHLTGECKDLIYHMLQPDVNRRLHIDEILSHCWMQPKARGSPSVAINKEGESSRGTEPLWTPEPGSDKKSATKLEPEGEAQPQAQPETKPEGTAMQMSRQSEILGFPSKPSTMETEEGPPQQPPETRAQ
The method, boiled down: as §1

The target in the next assay is T3, SYK (Homo sapiens, UniProt P43405).
T3 construct: purchased Reaction Biology Corp

The target in another assay is T4, BMX/ETK (Homo sapiens, UniProt P51813).
T4 construct: purchased Reaction Biology Corp
T4 sequence (P51813 1-675): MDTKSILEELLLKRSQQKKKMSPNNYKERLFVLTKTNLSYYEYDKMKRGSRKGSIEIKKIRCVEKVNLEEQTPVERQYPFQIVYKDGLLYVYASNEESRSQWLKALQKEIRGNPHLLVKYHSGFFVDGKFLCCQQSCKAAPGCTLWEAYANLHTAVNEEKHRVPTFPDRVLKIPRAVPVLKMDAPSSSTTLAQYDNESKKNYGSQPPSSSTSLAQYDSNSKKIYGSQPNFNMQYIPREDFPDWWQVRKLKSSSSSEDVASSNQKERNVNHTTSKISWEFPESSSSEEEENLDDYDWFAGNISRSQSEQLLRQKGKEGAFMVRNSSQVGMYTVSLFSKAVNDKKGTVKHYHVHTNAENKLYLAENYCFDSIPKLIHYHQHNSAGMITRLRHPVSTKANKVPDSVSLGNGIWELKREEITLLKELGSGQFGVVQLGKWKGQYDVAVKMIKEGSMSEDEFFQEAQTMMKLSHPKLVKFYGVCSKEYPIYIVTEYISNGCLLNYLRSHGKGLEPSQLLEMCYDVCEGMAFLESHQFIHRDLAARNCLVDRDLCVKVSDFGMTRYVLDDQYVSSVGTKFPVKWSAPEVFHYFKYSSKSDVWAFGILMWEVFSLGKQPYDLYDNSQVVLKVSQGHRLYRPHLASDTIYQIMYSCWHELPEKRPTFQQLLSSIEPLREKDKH
The method in brief:
as §1

The mark [1] stands for this setting: read-out: % Enzyme Activity (relative to DMSO controls) Run 1.
Where [2] appears, read: read-out: % Enzyme Activity (relative to DMSO controls) Run 2.

Read-outs that look alike come from different tables or passages of the source.

Consider `C=CC(=O)Nc1cccc(Nc2nc(Nc3ccc(OCCOC)c(F)c3)ncc2F)c1` [Compound 2], for which the inhibition at 3 µM at TAOK2/TAO1 was 3.53%; against STK22D/TSSK1, 11.1%; against SYK it was 22.4%; at BMX/ETK, 98.9%. The remaining activity at 3 µM on TAOK2/TAO1 (setting [1]) is 98.5%; on TAOK2/TAO1 (setting [2]), 94.4%; at STK22D/TSSK1 (setting [1]), 88%; on STK22D/TSSK1 (setting [2]), 89.7%; on SYK (setting [1]), 78%; at SYK (setting [2]), 77.1%. In addition, the remaining activity at 3 µM at BMX/ETK (setting [1]) worked out at 0.93%; on BMX/ETK (setting [2]), 1.23%.

The inhibition is the change of the read-out against control, counted positive when it falls. A low value points to little suppression.
